Source: US10105357B2, “Indication of antibiotic drugs for preparation of cancer inhibition pharmaceutical composition” (LAUNX BIOMEDICAL CO., LTD., priority 2014, dated 2018)
Read-outs that look alike come from different tables or passages of the source.

Tests used:
[1] = tested on: Hep3B (hepatocellular carcinoma); assay: Cell viability analysis, hepatic cancer Hep3B; type: cell-based, human; conditions: Homo sapiens, Hep3B, 72 h, read-out: The results of antibiotic drug inhibiting cancer cell lines (cell viability analysis), Hep3B
[2] = tested on: TSGH-8301 (Urinary Bladder Carcinoma); assay: Cell viability analysis, bladder cancer TSGH-8301; type: cell-based, human; conditions: Homo sapiens
[3] = tested on: HL-60 (Acute Promyelocytic Leukemia); assay: Cell viability analysis, leukemia HL-60; type: cell-based, human; conditions: Homo sapiens, HL-60; drug 10 μM, 72 hours, WST-1, OD450 nm; read-out: cell viability (survival rate), HL-60
[4] = tested on: A549 (Lung Adenocarcinoma); assay: Cell viability analysis, lung cancer A549; type: cell-based, human; conditions: Homo sapiens, A549
[5] = tested on: HCT116 (p53+) (Colorectal Carcinoma)
[6] = tested on: AGS (Gastric Adenocarcinoma); assay: Cell viability analysis, gastric cancer AGS; type: cell-based, human; conditions: Homo sapiens
[7] = tested on: MKN-45 (Gastric Adenocarcinoma); assay: Cell viability analysis, gastric cancer MKN-45; type: cell-based, human; conditions: Homo sapiens, MKN-45
[8] = tested on: MCF7 (Mammary Gland, Adenocarcinoma); assay: Cell viability analysis, breast cancer MCF7; type: cell-based, human; conditions: Homo sapiens
cancer cell lines = assay: Cell viability analysis (WST-1) on cancer cell lines; type: cell-based, human; conditions: drug 10 μM, 72 hours, WST-1; Table 3
AsPC-1 = assay: Cell viability analysis, pancreatic cancer AsPC-1; type: cell-based, human; conditions: Homo sapiens, ASPC1, 72 h, read-out: The results of antibiotic drug inhibiting cancer cell lines (cell viability analysis), AsPC-1
TOV-21G = assay: Cell viability analysis, ovarian cancer TOV-21G; type: cell-based, human; conditions: Homo sapiens, TOV21G, 72 h, read-out: The results of antibiotic drug inhibiting cancer cell lines (cell viability analysis), TOV-21G
U-2OS = assay: Cell viability analysis, osteosarcoma U-2OS; type: cell-based, human; conditions: Homo sapiens, U2OS, 72 h, read-out: The results of antibiotic drug inhibiting cancer cell lines (cell viability analysis), U2OS
BxPC-3 = assay: Cell viability analysis, pancreatic cancer BxPC-3; type: cell-based, human; conditions: Homo sapiens, BXPC-3, 72 h, read-out: The results of antibiotic drug inhibiting cancer cell lines (cell viability analysis), BxPC-3
NIH: OVCAR-3 = assay: Cell viability analysis, ovarian cancer NIH: OVCAR-3; type: cell-based, human; conditions: Homo sapiens, OVCAR-3, 72 h, read-out: The results of antibiotic drug inhibiting cancer cell lines (cell viability analysis), NIH-OVCAR-3
[9] = tested on: LoVo (Colorectal Adenocarcinoma); assay: Cell viability analysis, colon cancer LoVo; type: cell-based, human; conditions: Homo sapiens, LoVo
[10] = tested on: HI650 (Lung Adenocarcinoma); assay: Cell viability analysis, lung cancer HI650; type: cell-based, human; conditions: Homo sapiens
[11] = tested on: A375 (Amelanotic Melanoma); assay: Cell viability analysis, skin cancer A375; type: cell-based, human; conditions: Homo sapiens
[12] = tested on: MDA-MB-231 (Mammary Gland, Adenocarcinoma); assay: Cell viability analysis, breast cancer MDA-MB-231; type: cell-based, human; conditions: Homo sapiens, MDA-MB-231, 72 h, read-out: The results of antibiotic drug inhibiting cancer cell lines (cell viability analysis), MDA-MB231
[13] = tested on: HepG2 (Hepatocellular Carcinoma); assay: Cell viability analysis, hepatic cancer HepG2; type: cell-based, human; conditions: Homo sapiens, HepG2
[14] = tested on: BCC (basal cell carcinoma); assay: Cell viability analysis, skin cancer BCC; type: cell-based, human; conditions: Homo sapiens, 72 h, read-out: The results of antibiotic drug inhibiting cancer cell lines (cell viability analysis), BCC
[15] = tested on: 786-O (Renal adenocarcinoma); assay: Cell viability analysis, renal cancer 786-O; type: cell-based, human; conditions: Homo sapiens, 786-0, 72 h, read-out: The results of antibiotic drug inhibiting cancer cell lines (cell viability analysis), 786-O
[16] = tested on: HeLa (Cervix Adenocarcinoma); assay: Cell viability analysis, cervical cancer HeLa; type: cell-based, human; conditions: Homo sapiens, HeLa
[17] = tested on: PC3 (p53−) (Prostate Adenocarcinoma); assay: Cell viability analysis, prostate cancer PC3; type: cell-based, human; conditions: Homo sapiens
T24 = assay: Cell viability analysis, bladder cancer T24; type: cell-based, human; conditions: Homo sapiens, T-24, 72 h, read-out: The results of antibiotic drug inhibiting cancer cell lines (cell viability analysis), T24
[18] = tested on: C-33A (Cervical carcinoma); assay: Cell viability analysis, cervical cancer C-33A; type: cell-based, human; conditions: Homo sapiens, C-33-A, 72 h, read-out: The results of antibiotic drug inhibiting cancer cell lines (cell viability analysis), C-33A
[19] = tested on: SAS (Tongue squamous cell carcinoma); assay: Cell viability analysis, tongue cancer SAS; type: cell-based, human; conditions: Homo sapiens, 72 h, read-out: The results of antibiotic drug inhibiting cancer cell lines (cell viability analysis), SAS

With CCC[S+]([O-])c1ccc2[nH]c(NC(=O)OC)nc2c1 (stereo not shown) [Albendazole Oxide (Ricobendazole), Albendazole Oxide] the viability at 10 µM [1] was 97.9%, the viability at 10 µM ([2]; 72 h, TSGH-8301, repeated experiment, read-out: The results of antibiotic drug inhibiting cancer cell lines (cell viability analysis), TSGH-8301) was 63.3% and the viability at 10 µM ([2]; drug 10 μM, 72 hours, WST-1, OD450 nm, read-out: cell viability (survival rate), TSGH) was 77.7%. For the same compound, the viability at 10 µM [3] was 103%, the viability at 10 µM ([4]; 72 h, repeated experiment, read-out: The results of antibiotic drug inhibiting cancer cell lines (cell viability analysis), A549) was 95.5% and the viability at 10 µM ([4]; drug 10 μM, 72 hours, WST-1, OD450 nm, read-out: cell viability (survival rate), A549) was 155%. The viability [5] was 91.3%, the viability at 10 µM ([6]; 72 h, AGS, repeated experiment, read-out: The results of antibiotic drug inhibiting cancer cell lines (cell viability analysis), AGS) was 80% and the viability at 10 µM ([6]; drug 10 μM, 72 hours, WST-1, OD450 nm, read-out: cell viability (survival rate), AGS) was 34%. It also gave a viability at 10 µM ([7]; 72 h, repeated experiment, read-out: The results of antibiotic drug inhibiting cancer cell lines (cell viability analysis), MKN-45) of 74.3%, a viability at 10 µM ([7]; drug 10 μM, 72 hours, WST-1, OD450 nm, read-out: cell viability (survival rate), MKN-45) of 60.8% and a viability at 10 µM ([8]; MCF7, 72 h, MCF-7, repeated experiment, read-out: The results of antibiotic drug inhibiting cancer cell lines (cell viability analysis), MCF-7) of 68.3%. For the same compound, the viability at 10 µM ([8]; MCF7, drug 10 μM, 72 hours, WST-1, OD450 nm, read-out: cell viability (survival rate), MCF7) was 62.3%, the “inhibition effect on different cancer cell lines” value (cancer cell lines) was “significant inhibition effect” and the viability at 10 µM (AsPC-1) was 67.6%. The viability at 10 µM (TOV-21G) was 76.3%, the viability at 10 µM (U-2OS) was 84.8% and the viability at 10 µM (BxPC-3) was 50.2%. The viability at 10 µM (NIH: OVCAR-3) was 72.1%, the viability at 10 µM ([9]; 72 h, repeated experiment, read-out: The results of antibiotic drug inhibiting cancer cell lines (cell viability analysis), LoVo) was 88.2% and the viability at 10 µM ([9]; drug 10 μM, 72 hours, WST-1, OD450 nm, read-out: cell viability (survival rate), LoVo) was 68.9%. The viability at 10 µM ([10]; NCI-H1650, 72 h, H1650, repeated experiment, read-out: The results of antibiotic drug inhibiting cancer cell lines (cell viability analysis), H1650) was 64.6%, the viability at 10 µM ([10]; NCI-H1650, drug 10 μM, 72 hours, WST-1, OD450 nm, read-out: cell viability (survival rate), H1650) was 59.5% and the viability at 10 µM ([11]; A-375, 72 h, A375, repeated experiment, read-out: The results of antibiotic drug inhibiting cancer cell lines (cell viability analysis), A375) was 66.5%. The viability at 10 µM ([11]; A-375, drug 10 μM, 72 hours, WST-1, OD450 nm, read-out: cell viability (survival rate), A375) was 92.9%, the viability at 10 µM [12] was 81.1% and the viability at 10 µM ([13]; 72 h, repeated experiment, read-out: The results of antibiotic drug inhibiting cancer cell lines (cell viability analysis), HepG2) was 92.9%. For the same compound, the viability at 10 µM ([13]; drug 10 μM, 72 hours, WST-1, OD450 nm, read-out: cell viability (survival rate), HepG2) was 104%, the viability at 10 µM [14] was 57.1% and the viability at 10 µM [15] was 86.1%. The viability at 10 µM ([16]; 72 h, repeated experiment, read-out: The results of antibiotic drug inhibiting cancer cell lines (cell viability analysis), HeLa) was 49.4%, the viability at 10 µM ([16]; drug 10 μM, 72 hours, WST-1, OD450 nm, read-out: cell viability (survival rate), HeLa) was 56% and the viability at 10 µM ([17]; 72 h, PC-3, repeated experiment, read-out: The results of antibiotic drug inhibiting cancer cell lines (cell viability analysis), PC-3) was 78.7%. It also gave a viability at 10 µM ([17]; drug 10 μM, 72 hours, WST-1, OD450 nm, read-out: cell viability (survival rate), PC3) of 60.5%, a viability at 10 µM (T24) of 89.8% and a viability at 10 µM [18] of 102%. The viability at 10 µM [19] was 92.4%.
